Assay results taken from patent publication US20060287251A1, “Combination therapy for glycaemic control” (priority 2003, published 2006).

Test system: diabetic Zucker (fa/fa) rats
Test: Glutaminyl thiazolidine and Metformin alone or in combination, glycemic control in diabetic Zucker (fa/fa) rats
Type: in vivo, rat
Protocol: Ten or eleven weeks old male Zucker (fa/fa) rats were purchased from Charles River (Sulzfeld, Germany). Animals were kept under standardized semi-barrier conditions with controlled temperature (22±2° C.) on a 12/12 hours light/dark cycle (light on at 06:00 a.m.). Standard pelleted chow (ssniff®, Soest, Germany) and tap water acidified with HCl were allowed ad libitum. At the age of 12 weeks the animals (N=42) were divided in random order into six experimental groups to be medicated. Definition of the Experimental Groups for the Medications (GT=glutaminyl thiazolidine):
The single or combined doses per kg b.w. were solved in 5 mL dist. water for oral administration.
The study was started with the 12 to 13 weeks old Zucker (fa/fa) rats. At the beginning of the study an OGTT was performed (2 g glucose/kg body weight (b.w.); administration volume: 5 mL/kg of a 40% solution; B. Braun Melsungen, Melsungen, Germany) after a 16 h fast. […] Dosing was performed at t=5 min before OGTT by gavage.
Blood samples were taken from tail veins to measure blood glucose and serum insulin at −15, ±0 min, 15, 30, 60, 90, 120 and 180 min (the latter time without insulin samples) with respect to time of glucose administration.
After the first OGTT the animals in the groups were dosed twice daily with the respective drugs at 08:00 AM and at 04:00 PM, respectively:
During the two weeks of medication morning blood glucose was measured before the 08:00 AM medication at Monday, Wednesday and Friday.
Food intake was determined every day during the time of medication.
All the animals were weighted three times per week at 7:30 AM.
A second OGTT was performed after two weeks of medication (Day 15). The food was withdrawn at 04:00 PM the day before (16 h fast). The OGTT was performed with pre-medication at −5 min and oral glucose loading at ±0 min. Blood samples were taken from tail veins to measure blood glucose, and serum insuline at −15, ±0 min, 15, 30, 60, 90, 120 and 180 min (the latter time without insulin samples).
Glycated hemoglobin was measured before (Day −7) and on Day 18.
Glucose-For determination of glucose 20 μL blood were collected at −15, ±0 min (before OGTT) and 15, 30, 60, 90, 120 and 180 min post OGTT.
Insulin-Insulin concentrations were assayed by the antibody RIA method (Linco Research, Inc. St. Charles, Mo., USA).
Glycated haemoglobin-Percentage of glycated hemoglobin A (HbA1c) was estimated with the “DCA 2000R Hämoglobin A1c-Reagenz kit”(Bayer Vital GmbH, Fernwald, Germany).
The body weight was measured using a platform balance (Scaltec, Heiligenstadt, Germany).
Mixed venous blood samples from the tails were collected into 20 μL glass capillaries, which were placed in standard tubes filled with 1 ml solution for hemolysis (blood glucose measurement) and in sample tubes for serum insulin (50 μL blood).
Raw data of glucose analysis were provided by IDK to probiodrug in Excel format as soon as possible. Data for each drug and each parameter (glucose, insulin) were summarized by descriptive statistics (mean, SEM). […] Changes from baseline were calculated and summarized by descriptive statistic.

## NC(=O)CC[C@H](N)C(=O)N1CCSC1 [glutaminyl thiazolidine]
GT 60 mg/kg b.w. and/or Metformin 125 mg/kg b.w. (Met-low), b.i.d. oral, p<0.05 vs. Control
  reactive and absolute G-AUC: significantly reduced
GT 60 mg/kg b.w. and/or Metformin 125 mg/kg b.w. (Met-low), b.i.d. oral, vs. Control
  glucose tolerance curve in the OGTT: significantly improved glucose tolerance curves
Subchronic (18 days) b.i.d. administration, diabetic fatty Zucker rats (fa/fa)
  glucose tolerance: improved glucose tolerance
